Data: patent publication US20260159520A1, “HETEROBIFUNCTIONAL COMPOUNDS AND METHODS OF TREATING DISEASE” (Halda Therapeutics OpCo, Inc., priority 2022, published 2026)

How the values were obtained:
androgen receptor = molecular target: T1, androgen receptor (Homo sapiens, UniProt P10275); assay: Binding affinity to androgen receptor ([3H]methyltrienolone radioligand, cell cytosol); settings: Table 6
T1 construct: endogenous in cells; host or cells: unnamed cells (cytosol fraction)
T1 sequence (P10275 1-920): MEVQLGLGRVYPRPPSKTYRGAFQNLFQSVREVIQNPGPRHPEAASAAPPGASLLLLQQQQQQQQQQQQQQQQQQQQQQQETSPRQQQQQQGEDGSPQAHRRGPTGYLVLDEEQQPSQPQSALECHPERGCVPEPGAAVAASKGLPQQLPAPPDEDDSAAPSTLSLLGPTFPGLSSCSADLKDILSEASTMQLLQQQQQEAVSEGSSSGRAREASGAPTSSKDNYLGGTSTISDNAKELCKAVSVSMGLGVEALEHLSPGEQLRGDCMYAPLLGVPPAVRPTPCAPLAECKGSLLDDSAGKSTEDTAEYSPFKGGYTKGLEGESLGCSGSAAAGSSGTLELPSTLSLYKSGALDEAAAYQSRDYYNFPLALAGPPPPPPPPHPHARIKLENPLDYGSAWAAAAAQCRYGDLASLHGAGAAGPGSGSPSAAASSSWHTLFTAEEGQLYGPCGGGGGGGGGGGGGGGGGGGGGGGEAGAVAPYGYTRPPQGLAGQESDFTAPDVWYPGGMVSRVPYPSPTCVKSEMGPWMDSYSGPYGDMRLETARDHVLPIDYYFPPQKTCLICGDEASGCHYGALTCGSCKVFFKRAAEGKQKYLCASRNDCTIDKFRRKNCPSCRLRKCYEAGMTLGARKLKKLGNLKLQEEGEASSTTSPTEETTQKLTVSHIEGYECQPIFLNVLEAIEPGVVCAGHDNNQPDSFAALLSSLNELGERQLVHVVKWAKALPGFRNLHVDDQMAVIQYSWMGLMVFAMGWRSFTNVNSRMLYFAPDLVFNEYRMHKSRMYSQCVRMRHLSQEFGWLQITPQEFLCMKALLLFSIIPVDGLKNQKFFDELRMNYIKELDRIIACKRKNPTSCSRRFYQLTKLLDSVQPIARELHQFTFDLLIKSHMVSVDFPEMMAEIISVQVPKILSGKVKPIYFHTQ
Protocol: Fractions of cell cytosol ([…]) were incubated for 24 hr at 4° C. with 1 nM [^3H]methyltrienolone in the absence or presence of the test compound in a buffer containing 25 mM Hepes-Tris (pH 7.4), 1 mM EDTA, 10 mM Na2MoO4, 2 mM DTT, 5 μM triamcinolone acetonide, and 10% glycerol. Nonspecific binding was determined in the presence of 1 μM testosterone. Following incubation, the samples were filtered rapidly under vacuum through glass fiber filters (GF/B, Packard) presoaked with 0.3% PEI and rinsed several times with ice-cold 50 mM Tris-HCl using a 96-sample cell harvester (Unifilter, Packard). The filters were dried then counted for radioactivity in a scintillation counter (Topcount, Packard) using a scintillation cocktail (Microscint 0, Packard). The results are expressed as a percent inhibition of the control radioligand specific binding. The standard reference compound is testosterone, which is tested in each experiment at several concentrations to obtain a competition curve from which its IC50 is calculated.

CDK9 = molecular target: T2, CDK9 (Homo sapiens, UniProt P50750); assay: KdELECT binding assay, CDK9; settings: CDK9, Table 7
T2 construct: made in house; host or cells: E. coli BL21-derived host (T7 phage) or HEK-293 ('BEK-293' [sic])
T2 sequence (P50750 whole entry): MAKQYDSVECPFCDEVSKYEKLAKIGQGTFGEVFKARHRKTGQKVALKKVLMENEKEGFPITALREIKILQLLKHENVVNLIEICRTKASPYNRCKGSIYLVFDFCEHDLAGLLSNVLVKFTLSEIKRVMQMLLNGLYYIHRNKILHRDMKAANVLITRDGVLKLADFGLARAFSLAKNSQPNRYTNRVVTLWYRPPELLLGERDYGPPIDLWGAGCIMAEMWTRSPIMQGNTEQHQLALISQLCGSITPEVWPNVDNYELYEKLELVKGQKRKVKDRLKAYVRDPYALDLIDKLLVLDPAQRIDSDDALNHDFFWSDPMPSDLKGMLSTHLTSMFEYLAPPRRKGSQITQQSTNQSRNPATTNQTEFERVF
Protocol: Compounds were tested using a KdELECT. Kinase-tagged T7 phage strains were prepared in an E. coli host derived from the BL21 strain. E. coli were grown to log-phase and infected with T7 phage and incubated with shaking at 32° C. until lysis. The lysates were centrifuged and filtered to remove cell debris. The remaining kinases were produced in BEK-293 cells and subsequently tagged with DNA for qPCR detection. Streptavidin-coated magnetic beads were treated with biotinylated small molecule ligands for 30 minutes at room temperature to generate affinity resins for kinase assays. The liganded beads were blocked with excess biotin and washed with blocking buffer (SeaBlock (Pierce), 1% BSA, 0.05% Tween 20, 1 mM DTT) to remove unbound ligand and to reduce non-specific binding. Binding reactions were assembled by combining kinases, liganded affinity beads, and test compounds in 1× binding buffer (20% SeaBlock, 0.17×PBS, 0.05% Tween 20, 6 mM DTT). Test compounds were prepared as 111× stocks in 100% DMSO. Kd values were determined using an 11-point 3-fold compound dilution series with three DMSO control points. All compounds for Kd measurements are distributed by acoustic transfer (non-contact dispensing) in 100% DMSO. The compounds were then diluted directly into the assays such that the final concentration of DMSO was 0.9%. All reactions performed in polypropylene 384-well plate. Each was a final volume of 0.02 mL. The assay plates were incubated at room temperature with shaking for 1 hour and the affinity beads were washed with wash buffer (lx PBS, 0.05% Tween 20). The beads were then re-suspended in elution buffer (lx PBS, 0.05% Tween 20, 0.5 μM nonbiotinylated affinity ligand) and incubated at room temperature with shaking for 30 minutes. The kinase concentration in the eluates was measured by qPCR.

[1] = tested on: T-Rex 293 cell line SC3 cells having increased expression of androgen receptor protein; assay: Cellular growth inhibition, T-Rex 293 SC3 cells with doxycycline (increased androgen receptor expression); type: cell-based; settings: with 10 ng/mL doxycycline (increased androgen receptor), 72 hours, CellTiter-Glo 2.0
Procedure, shortened: (§1)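 Doxycycline (10 ng/mL) was either included or omitted to toggle wild-type androgen receptor expression in SC3 cells, a T-Rex 293 clone, grown in stripped-serum, phenol red-free medium. After 72 hours with compound, viable cells were quantified by CellTiter-Glo 2.0.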

[2] = tested on: T-Rex 293 cell line SC3 cells lacking increased expression of androgen receptor protein; assay: Cellular growth inhibition, T-Rex 293 SC3 cells without doxycycline; type: cell-based; settings: not exposed to doxycycline, 72 hours, CellTiter-Glo 2.0
Procedure, shortened: as §1

VCaP cells = assay: Cellular growth inhibition assay for VCaP cells; type: cell-based; settings: Homo sapiens, 72 hours, CellTiter-Glo 2.0
[3] = tested on: T-Rex 293 cell line SC cells having increased expression of progesterone receptor isoform B protein; assay: Cellular growth inhibition, T-Rex 293 SC cells with doxycycline (increased progesterone receptor isoform B expression); type: cell-based; settings: with 10 ng/mL doxycycline (increased progesterone receptor isoform B), 72 hours, CellTiter-Glo 2.0
Protocol: (§2) The following types of cells were prepared for this experiment: (i) a T-Rex 293 cell line having increased expression of progesterone receptor isoform B protein due to exposure to doxycycline and (ii) a T-Rex 293 cell line lacking increased expression of progesterone receptor isoform B protein. Ability of the test compounds to inhibit proliferation of the foregoing cell types was evaluated according to the procedures set forth below.
(§3) The doxycycline-inducible progesterone receptor isoform B protein expressing cell line was established using the following protocol: T-Rex 293 cells were purchased from Invitrogen (Cat #R71007) and transfected using Lipofectamine 2000 with the wild-type progesterone receptor B protein sequence cloned into the pcDNA4/TO vector. Transfected cells were selected using 400 μg/mL Zeocin (Invitrogen Cat #R25001). Following selection, single clones were raised and maintained in Dulbecco's Modified Eagle Medium (DMEM) supplemented with 10% w/w Tetracycline-free fetal bovine serum (FBS) and 250 μg/mL Zeocin. Clones were analyzed for expression of progesterone receptor isoform B protein in the presence and absence of 10 ng/mL doxycycline (Sigma Cat #D9891), and a single doxycycline-inducible clone (hereinafter “SC”) was selected for use in downstream assays.
(§4) The SC cells were seeded on poly-D-lysine coated, black clear-bottom 384-well plates at 2500/well, in 25 μL Phenol Red Free Dulbecco's Modified Eagle Medium (DMEM) supplemented with 10% w/w charcoal-dextran treated fetal bovine serum (FBS) and 1% w/w pen-strep, with or without 10 ng/mL doxycycline. Pen-Strep is a commercially available mixture of penicillin G and streptomycin, which is used in mammalian cell culture media to prevent bacterial contamination. Phenol Red Free Dulbecco's Modified Eagle Medium (DMEM) supplemented with 10% w/w charcoal-dextran treated fetal bovine serum (FBS) and 1% w/w pen-strep, with or without 10 ng/mL doxycycline is herein referred to as Treatment Medium. Following seeding of cells in the plates, the plates were spun at 300×g for 30 seconds, then equilibrated to room temperature for 30 minutes, and then deposited in a humidified tissue culture incubator maintained at 37° C. with 5% CO2.
(§5) At 24 hours after seeding of the cells, dilutions of test compound were prepared in DMSO and dissolved in Treatment Medium, to achieve a final DMSO concentration of 0.5% w/w, thereby providing the Test Compound Solution. A 25 μL aliquot of the Test Compound Solution was added to cells in the well plates. An equal volume of a solution containing DMSO and Treatment Medium was used as a negative control. Following treatment of cells with Test Compound Solution or said equal volume of a solution containing DMSO and Treatment Medium, the plates were spun at 300×g for 30 seconds, and then left in an incubator for 72 hours.
(§6) At the end of the treatment duration, cell viability was quantified with CellTiter-Glo 2.0 reagent (Promega Cat #G9243). For this purpose, plates were equilibrated to room temperature for 30 minutes, and then 25 μL of CellTiter-Glo 2.0 reagent was added to cells in the plate wells. Plates were then agitated on a shaker for two minutes at 500 rpm and subsequently incubated at room temperature for 10 minutes. Following incubation, the plates were spun at 3000×g for 30 seconds, then sealed with an optical adhesive cover, and luminescence readings were measured with an EnVision Plate Reader (Perkin Elmer).
(§7) Data was normalized using zero luminescence for baseline. A four-parameter non-linear regression curve fit was applied to dose-response data in GraphPad Prism data analysis software to determine the half-maximal growth inhibitory concentration (GI50) for each test compound.

[4] = tested on: T-Rex 293 cell line SC cells lacking increased expression of progesterone receptor isoform B protein; assay: Cellular growth inhibition, T-Rex 293 SC cells without doxycycline; type: cell-based; settings: not exposed to doxycycline, 72 hours, CellTiter-Glo 2.0
Protocol: as §2, §3, §4, §5, §6, §7

Structure (SMILES)	Kd (androgen receptor)	Kd (CDK9)	GI50 (VCaP cells)	GI50 [1]	GI50 [2]	GI50 [3]	GI50 [4]
CCc1cnn2c(NCc3ccc(OCCCN4CCN(CCCOC5CCN(c6ncc(C(=O)N[C@H]7C(C)(C)[C@H](Oc8ccc(C#N)c(Cl)c8)C7(C)C)cn6)CC5)CC4)nc3)cc(N3CCCC[C@H]3CCO)nc12 [Compound I-11]	< 50 nM		< 100 nM	< 100 nM	100 to 1000 nM		
CCc1cnn2c(NCc3ccc(OCCOCCOCCN(C)c4ncc(C(=O)N[C@H]5C(C)(C)[C@H](Oc6ccc(C#N)c(Cl)c6)C5(C)C)cn4)nc3)cc(N3CCCC[C@H]3CCO)nc12 [Compound I-2, N-((1r,3r)-3-(3-chloro-4-cyanophenoxy)-2,2,4,4-tetra-methylcyclobutyl)-2-((2-(2-(2-((5-(((3-ethyl-5-((S)-2-(2-hydroxyethyl)piperidin-1-yl)pyrazolo[1,5-a]pyrimidin-7-yl)amino)methyl)pyridin-2-yl)oxy)ethoxy)ethoxy)ethyl)(methyl)amino)pyrimidine-5-carboxamide]				100 to 1000 nM	100 to 1000 nM	< 500 nM	< 500 nM
CCc1cnn2c(NCc3ccc(OCCCCOC4CCN(c5ncc(C(=O)N[C@H]6C(C)(C)[C@H](Oc7ccc(C#N)c(Cl)c7)C6(C)C)cn5)CC4)nc3)cc(N3CCCC[C@H]3CCO)nc12 [Compound I-27]				100 to 1000 nM	> 3500 nM	< 500 nM	> 3000 nM
CCc1cnn2c(NCc3ccc(OCCOCCOCCOCCOCCOCCOCCOC4CCN(c5ncc(C(=O)N[C@H]6C(C)(C)[C@H](Oc7ccc(C#N)c(Cl)c7)C6(C)C)cn5)CC4)nc3)cc(N3CCCC[C@H]3CCO)nc12 [Compound I-10]			< 100 nM	< 100 nM	100 to 1000 nM	< 500 nM	< 500 nM
CCc1cnn2c(N(C)Cc3ccc(OCCOCCOCCOCCOCCN(C)c4ncc(C(=O)N[C@H]5C(C)(C)[C@H](Oc6ccc(C#N)c(Cl)c6)C5(C)C)cn4)nc3)cc(N3CCCC[C@H]3CCO)nc12 [Compound I-12]	< 50 nM	> 2500 nM		> 3500 nM	> 3500 nM		

Further lines, with some results ahead:

Kd (androgen receptor)	Kd (CDK9)	GI50 (VCaP cells)	Structure (SMILES)	GI50 [1]	GI50 [2]	GI50 [3]	GI50 [4]
< 50 nM	> 2500 nM		CCc1cnn2c(N(C)Cc3ccc(OCCOCCOCCOC4CCN(c5ncc(C(=O)N[C@H]6C(C)(C)[C@H](Oc7ccc(C#N)c(Cl)c7)C6(C)C)cn5)CC4)nc3)cc(N3CCCC[C@H]3CCO)nc12 [Compound I-25]	> 3500 nM	> 3500 nM		
> 2500 nM	> 2500 nM		CCc1cnn2c(NCc3ccc(OCCCCCCCCOC4CCN(c5ncc(C(=O)N[C@H]6C(C)(C)[C@H](Oc7ccc(C#N)c(Cl)c7)C6(C)C)cn5)CC4)nc3)cc(N3CCCC[C@H]3CCO)nc12 [Compound I-31]	> 3500 nM	> 3500 nM		
500 to 2500 nM		100 to 1000 nM	CCc1cnn2c(NCc3ccc(OCCCN4CCN(CC5CCN(c6cnc(C(=O)N[C@H]7C(C)(C)[C@H](Oc8ccc(C#N)c(Cl)c8)C7(C)C)nc6)CC5)CC4)nc3)cc(N3CCCC[C@@H]3CCO)nc12 [Compound I-58, N-((1r,3r)-3-(3-chloro-4-cyanophenoxy)-2,2,4,4-tetramethylcyclobutyl)-5-(4-((4-(3-((5-(((3-ethyl-5-((R)-2-(2-hydroxyethyl)piperidin-1-yl)pyrazolo[1,5-a]pyrimidin-7-yl)amino)methyl)pyridin-2-yl)oxy)propyl)piperazin-1-yl)methyl)piperidin-1-yl)pyrimidine-2-carboxamide]	100 to 1000 nM	< 100 nM		
< 50 nM		100 to 1000 nM	CCc1cnn2c(NCc3ccc(OCCOCCN(C)C45CC(N(C)c6ncc(C(=O)N[C@H]7C(C)(C)[C@H](Oc8ccc(C#N)c(Cl)c8)C7(C)C)cn6)(C4)C5)nc3)cc(N3CCCC[C@H]3CCO)nc12 [Compound I-83]	< 100 nM	< 100 nM		
